According to EP3875456A1, “HETERO-BIFUNCTIONAL PROTEOLYSIS-TARGETING CHIMERAS (PROTACS) FOR THE SELECTIVE DEGRADATION OF FK506-BINDING PROTEINS (FKBPS)” (Technische Universität Darmstadt, priority 2020, dated 2021):

Tests used:
FKBP51 [1] = molecular target: T1, FKBP51 (Homo sapiens, UniProt Q13451); experiment: Degradation of FKBP51 in HEK293T cells (Western blot); assay type: cell-based; set-up: Upper blot: Endogeneous FKBP51; endogenous in cells; settings: 48 h incubation, endogeneous FKBP51, Western Blot, GAPDH control
T1 sequence (Q13451 1-457): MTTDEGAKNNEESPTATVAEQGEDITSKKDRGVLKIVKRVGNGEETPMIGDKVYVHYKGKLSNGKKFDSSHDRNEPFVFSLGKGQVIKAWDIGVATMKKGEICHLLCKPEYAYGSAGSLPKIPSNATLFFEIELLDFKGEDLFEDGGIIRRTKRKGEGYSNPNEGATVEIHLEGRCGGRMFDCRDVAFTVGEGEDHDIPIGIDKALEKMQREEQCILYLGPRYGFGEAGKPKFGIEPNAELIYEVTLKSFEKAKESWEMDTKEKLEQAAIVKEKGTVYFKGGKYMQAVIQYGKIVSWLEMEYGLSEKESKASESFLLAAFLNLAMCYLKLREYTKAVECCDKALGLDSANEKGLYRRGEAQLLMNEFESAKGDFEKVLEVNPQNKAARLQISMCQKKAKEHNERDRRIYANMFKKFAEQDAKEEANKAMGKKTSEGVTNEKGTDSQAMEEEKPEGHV
Procedure: (§1) HEK293T cells were incubated with the PROTAC MTQ202. 35,000 cells per well in a 24 well format. Figure 3-Upper blot: Endogeneous FKBP51. Figure 3-Lower blot: GAPDH. Cells were treated with the compound for 48 h before lysis. All samples have been exposed to a constant DMSO concentration. Lysate protein concentration was quantified via BCA assay and normalized with Lämmli buffer. Equal amounts of total protein were subjected to SDS-Page and Western Blot afterwards.

FKBP51 [2] = molecular target: T1, FKBP51; experiment: Degradation of FKBP51 in HeLa cells (Western blot); assay type: cell-based; set-up: Upper blot: Endogeneous FKBP51; endogenous in cells; host or cells: HeLa; settings: 24 h incubation, endogeneous FKBP51, Western Blot, GAPDH control
Procedure: as §1, with “HeLa” for “HEK293T”, “2 - Upper” for “3-Upper”, “2 - Lower” for “3-Lower”, “24” for “48”

FKBP51FK1 = molecular target: T2, FKBP51FK1 (Homo sapiens, UniProt Q13451); experiment: Binding affinities of exemplary compounds to FKBP51
T2 construct: FKBP51FK1
T2 sequence (Q13451 42-130 limits assumed): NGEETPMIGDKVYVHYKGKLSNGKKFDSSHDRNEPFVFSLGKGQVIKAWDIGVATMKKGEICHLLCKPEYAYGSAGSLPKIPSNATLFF
Procedure: Binding to FKBP51 is an important prerequisite in order to allow degradation of FKBP51. Thus, the binding affinities of the newly synthesized molecules (table 1) were tested.

COc1ccc(CC[C@H](OC(=O)[C@H]2CCCCN2C(=O)[C@H](c2cc(OC)c(OC)c(OC)c2)C2CCCCC2)c2cccc(OCc3cn(CCOCCOCCOCCOCC(=O)N[C@H](C(=O)N4C[C@H](O)C[C@H]4C(=O)NCc4ccc(-c5scnc5C)cc4)C(C)(C)C)nn3)c2)cc1OC (stereo in doubt) [MTQ202, (S)-(R)-3-(3,4-Dimethoxyphenyl)-1-(3-((1-((S)-16-((2S,4R)-4-hydroxy-2-((4-(4-methylthiazol-5-yl)benzyl)carbamoyl)pyrrolidine-1-carbonyl)-17,17-dimethyl-14-oxo-3,6,9,12-tetraoxa-15-azaoctadecyl)-1H-1,2,3-triazol-4-yl)methoxy)phenyl)propyl 1-((S)-2-cyclohexyl-2-(3,4,5-trimethoxyphenyl)acetyl)piperidine-2-carboxylate]
Degradation of FKBP51 (FKBP51 [1]): clearly visible, but not complete
Degradation of FKBP51 (FKBP51 [2]): clearly visible, but not complete
Ki (FKBP51FK1): 24 ± 8 nM

COc1ccc(CC[C@@H](OC(=O)[C@@H]2CCCCN2C(=O)[C@H](c2cc(OC)c(OC)c(OC)c2)C2CCCCC2)c2cccc(OCc3cn(CCOCCOCCOCC(=O)Nc4cccc5c4C(=O)N(C4CCC(=O)NC4=O)C5=O)nn3)c2)cc1OC (stereo partly drawn) [MTQ206, (2S)-(1R)-3-(3,4-Dimethoxyphenyl)-1-(3-((1-(2-(2-(2-(2-((2-(2,6-dioxopiperidin-3-yl)-1,3-dioxoisoindolin-4-yl)amino)-2-oxoethoxy)ethoxy)ethoxy)ethyl)-1H-1,2,3-triazol-4-yl)methoxy)phenyl)propyl 1-((S)-2-cyclohexyl-2-(3,4,5-trimethoxyphenyl)acetyl)piperidine-2-carboxylate]
Ki (FKBP51FK1): 22 ± 6 nM

COc1cccc([C@@H](CCc2ccc(OCc3cn(CCOCC(=O)Nc4cccc5c4C(=O)N(C4CCC(=O)NC4=O)C5=O)nn3)c(OC)c2)OC(=O)[C@@H]2CCCCN2C(=O)[C@H](c2cc(OC)c(OC)c(OC)c2)C2CCCCC2)c1 (stereo partly drawn) [MTQ333, (25)-(1R)-3-(4-((1-(2-(2-((2-(2,6-Dioxopiperidin-3-yl)-1,3-dioxoisoindolin-4-yl)amino)-2-oxoethoxy)ethyl)-1H-1,2,3-triazol-4-yl)methoxy)-3-methoxyphenyl)-1-(3-methoxyphenyl)propyl 1-((S)-2-cyclohexyl-2-(3,4,5-trimethoxyphenyl)acetyl)piperidine-2-carboxylate]
Ki (FKBP51FK1): 22 ± 6 nM
